Reference: US4473554A, “Bestatin-related compounds as immunopotentiator” (Zaidan Hojin Biseibutsu Kagaku Kenkyu Kai, priority 1982, dated 1984)

What was measured:
[1] = target: T1, aminopeptidase B (Rattus norvegicus, UniProt O09175); conditions: Journal of Medicinal Chemistry Vol. 20, No.4, pp. 510-515 (1977); cited from earlier work
T1 sequence (O09175 1-650): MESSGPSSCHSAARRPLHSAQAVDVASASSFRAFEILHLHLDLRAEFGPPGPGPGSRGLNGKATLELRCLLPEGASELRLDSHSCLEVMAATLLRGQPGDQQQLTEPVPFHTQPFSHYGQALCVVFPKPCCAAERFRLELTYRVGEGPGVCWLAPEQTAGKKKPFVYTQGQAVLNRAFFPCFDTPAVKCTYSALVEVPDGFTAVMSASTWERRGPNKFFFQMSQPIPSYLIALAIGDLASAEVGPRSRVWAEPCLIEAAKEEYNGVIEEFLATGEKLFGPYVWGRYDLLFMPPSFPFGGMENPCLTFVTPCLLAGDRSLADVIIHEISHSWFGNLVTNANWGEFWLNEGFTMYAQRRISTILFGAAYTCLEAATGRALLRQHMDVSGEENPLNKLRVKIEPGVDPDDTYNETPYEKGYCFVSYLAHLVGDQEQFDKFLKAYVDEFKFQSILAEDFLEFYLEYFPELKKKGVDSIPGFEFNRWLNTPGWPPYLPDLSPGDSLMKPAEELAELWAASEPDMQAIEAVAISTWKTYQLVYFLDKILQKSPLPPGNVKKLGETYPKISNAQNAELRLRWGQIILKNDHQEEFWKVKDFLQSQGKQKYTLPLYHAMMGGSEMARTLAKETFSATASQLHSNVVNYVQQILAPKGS

[2] = tested on: D.T.H. response in mice immunized with SRBC as antigen; assay: D.T.H. footpad test in mice immunized with SRBC, Examples 3-6 (dosages per mouse); type: in vivo; conditions: for Degree of swelling: control = 100; for Degree of swelling, Intraperitoneal injection / Degree of swelling, Oral administration: Table 5
Method: The effect of (2S,3R)-AHPA on cell-mediated immunity was tested in the same way in Example 2, namely according to the D.T.H. technique using mice immunized with sheep red blood cell as antigen. Thus, a suspension of 10^8 sheep red blood cells in 0.05 ml of physiological saline were subcutaneously injected at the time of immunization into the right hind footpad of each CDF1 -mouse under test (female, 8 weeks-aged, 5 mice in each group) to establish D.T.H. […] The degree of swelling was evaluated. By way of comparison, bestatin was tested in the same way as above. […] The effect of (2S,3R)-AHPA on the D.T.H. response was estimated in the same manner as in the above procedure (A) of Example 3 by orally administering 1 mcg/mouse, 0.1 mcg/mouse or 0.01 mcg/mouse of (2S,3R)-AHPA to each mouse under test. […] The effect of the mode of administering (2S,3R)-AHPA on the D.T.H. response was estimated in the same manner as in the procedure (A) of Example 3, except that the test compound (as aqueous solution) was injected intraperitoneally in stead of being given orally.

[3] = solubility in water
[4] = tested on: ICR-strain mice; assay: acute toxicity, intraperitoneal, ICR-strain mice; type: in vivo, mouse; conditions: dosage of 100 mg/kg
Text: In order to estimate the acute toxicity of the compound of the formula (VIII) or (IIId), some of the test compound was intraperitoneally given to ICR-strain mice (in groups each consisting of 6 mice, male, 5 weeks-aged, average body weight 20 g.), when all the tested mice tolerated intraperitoneal administration of (2S,3R)-APHA; (2S)-2-N-[(2'S,3'R)-3'-amino-2'-hydroxy-4'-phenyl-butanoyl]amino-4-methyl- pentanol; (2S)-2-N-[(2'S,3'R)-3'-amino-2'-hydroxy-4'-phenylbutanoyl-(S)-leucyl]amino-4-methyl-pentanol; (2S,3R)-3-amino-2-hydroxy-4-phenylbutanoyl-(S)-leucyl-(S)-leucine; (2S,3R)-3-amino-2-hydroxy-4-phenyl-butanoyl-(S)-leucyl-(S)-arginine; (2S,3R)-3-amino-2-hydroxy-4-phenylbutanoyl-(S)-leucyl-(S)-asparagine; (2R,3R)-3-amino-2-hydroxy-4-phenylbutanoyl-(S)-leucyl-(R)-asparagine; and (2S,3R)-3-amino-2-hydroxy-4-phenylbutanoyl-(S)-leucyl-(R)-arginine at a dosage of 100 mg/kg.

## N[C@H](Cc1ccccc1)[C@H](O)C(=O)O [(2S,3R)-AHPA]
[1]
  inhibitory activity to aminopeptidase B: weak inhibitory activity
[2]; Table 3, oral 0.01 mcg/mouse
  Increase in thickness of footpad (± S.D.): 10.6 ± 1.17 × 0.1 mm
  Degree of swelling: 134%
[2]; Table 3, oral 0.1 mcg/mouse
  Increase in thickness of footpad (± S.D.): 11.6 ± 1.85 × 0.1 mm
  Degree of swelling: 147%
[2]; Table 3, oral 1 mcg/mouse
  Increase in thickness of footpad (± S.D.): 11.9 ± 0.97 × 0.1 mm
  Degree of swelling: 151%
[2]; Table 3, oral 10 mcg/mouse
  Increase in thickness of footpad (± S.D.): 10.9 ± 0.57 × 0.1 mm
  Degree of swelling: 138%
[2]; Table 4, oral 0.01 mcg/mouse
  Increase in thickness of footpad (± S.D.): 10.1 ± 1.52 × 0.1 mm
  Degree of swelling: 125%
[2]; Table 4, oral 0.1 mcg/mouse
  Increase in thickness of footpad (± S.D.): 11.1 ± 0.82 × 0.1 mm
  Degree of swelling: 137%
[2]; Table 4, oral 1 mcg/mouse
  Increase in thickness of footpad (± S.D.): 10.8 ± 1.29 × 0.1 mm
  Degree of swelling: 133%
[2]; intraperitoneal 1 mcg/mouse
  Degree of swelling, Intraperitoneal injection: 143%
[2]; intraperitoneal 10 mcg/mouse
  Degree of swelling, Intraperitoneal injection: 128%
[2]; oral 1 mcg/mouse
  Degree of swelling, Oral administration: 135%
[2]; oral 10 mcg/mouse
  Degree of swelling, Oral administration: 126%
[2]; Table 7, oral 1 mcg/mouse
  Increase in thickness of footpad (± S.D.): 11.7 ± 1.29 × 0.1 mm
  Degree of swelling: 135%
[2]; Table 7, oral 10 mcg/mouse
  Increase in thickness of footpad (± S.D.): 11.0 ± 1.05 × 0.1 mm
  Degree of swelling: 126%
[2]; intraperitoneal injection or oral administration
  enhancement of cell-mediated immunity compared with bestatin: enhances the cell-mediated immunity as much as or much more than bestatin
[2]; oral 0.01 to 10 mcg/mouse versus bestatin oral 1 to 10 mcg/mouse
  immunopotentiating activity compared with bestatin: exhibits the immunopotentiating activity as high as bestatin
[2]; oral, dosages lower than 1 mcg/mouse
  enhancement of D.T.H. response compared with bestatin: enhances the D.T.H. response much more than bestatin
[2]; oral, low dosage of 0.01 mcg/mouse
  enhancement of cell-mediated immunity: active to enhance the cell-mediated immunity
[3]
  solubility in water: soluble in water
[4]
  acute toxicity: tolerance of intraperitoneal administration: tolerated
